From patent US11596639B2, “Substituted indole Mcl-1 inhibitors” (Vanderbilt University, priority 2016, dated 2023)

Tests used:
[1] = system: H929 human cancer cell lines; assay: Cellular viability / proliferation (Cell TiterGlo, 72 h); assay type: cell-based; conditions: Homo sapiens, NCI-H929, 72 h, read-out: GI50 on cellular proliferation of H929 human cancer cell lines, H929 cells, 72 h, Cell TiterGlo, 10% FBS
Protocol: Cellular Viability of Human Tumor Cell Lines
To evaluate compound effect on cellular proliferation, cells were plated at 1,000 cells/well in 96-well tissue culture plates in a total volume of 90 μL medium supplemented with 10% FBS (Sigma, Saint Louis, Mo.). 24 hours later, 10 μL of compound (in a 2-fold serial dilution) is added to the cells for a top concentration of 50 μM and a final DMSO concentration <1%. After 72 hours, 50 μL of Cell TiterGlo (Promega, Madison, Wis., USA) reagent is added to each well and plates are incubated at room temperature, in the dark, for 30 minutes. Luminescence is measured on a BioTek Cytation 3. Luminescence values are imported into a template in XLFit (Guildford, Surrey, UK) that uses a four-parameter fit to generate an IC50 value for each compound dilution series on the plate.

[2] = biological target: Mcl-1 (Homo sapiens (Human), UniProt Q07820); assay: Fluorescence polarization anisotropy (FPA) competition assay, FITC-Bak or FITC-Bim BH3 peptide; assay type: binding; conditions: read-out: Ki for Inhibition of Mcl-1 by FPA assay
Sequence of Mcl-1 (Q07820 172-327): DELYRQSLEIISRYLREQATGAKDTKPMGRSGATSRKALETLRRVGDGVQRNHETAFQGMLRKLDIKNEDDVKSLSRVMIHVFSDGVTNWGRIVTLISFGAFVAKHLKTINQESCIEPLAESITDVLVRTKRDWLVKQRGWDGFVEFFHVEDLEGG

Structure (SMILES) | GI50 [1] | Ki [2]
Cc1cc(OCCCc2c3n(c4c(-c5c(C)nn(C)c5C)c(Cl)ccc24)[C@H](C)CN(c2cn(C)c4ccc(-c5cnn(C)c5)cc24)C3=O)cc(C)c1Cl [Example 391, (R)-7-Chloro-10-(3-(4-chloro-3,5-dimethylphenoxy)propyl)-4-methyl-2-(1-methyl-5-(1-methyl-1H-pyrazol-4-yl)-1H-indol-3-yl)-6-(1,3,5-trimethyl-1H-pyrazol-4-yl)-3,4-dihydropyrazino[1,2-a]indol-1(2H)-one] | 370 nM | 2.1 nM
Cc1cc(OCCCc2c3n(c4c(-c5c(C)nn(C)c5C)c(Cl)ccc24)CCCN(c2cc(C(=O)O)c4ncn(C)c4c2)C3=O)cc(C)c1Cl [Example 7, 6-[8-chloro-11-[3-(4-chloro-3,5-dimethyl-phenoxy)propyl]-1-oxo-7-(1,3,5-trimethylpyrazol-4-yl)-4,5-dihydro-3H-[1,4]diazepino[1,2-a]indol-2-yl]-1-methyl-benzimidazole-4-carboxylic acid] | 13000 nM | 2.2 nM
Cc1cc(OCCCc2c3n(c4c(-c5c(C)nn(C)c5C)c(Cl)ccc24)CCCN(c2cccc4c(C(=O)O)n(C)nc24)C3=O)cc(C)c1Cl [Example 16, 7-[8-Chloro-11-[3-(4-chloro-3,5-dimethyl-phenoxy)propyl]-1-oxo-7-(1,3,5-trimethylpyrazol-4-yl)-4,5-dihydro-3H-[1,4]diazepino[1,2-a]indol-2-yl]-2-methyl-indazole-3-carboxylic acid] | 2900 nM | < 1 nM
Cc1cc(OCCCc2c3n(c4c(-c5c(C)nn(C)c5C)c(Cl)ccc24)[C@H](C)CN(c2cn(C)c4c(C#N)cccc24)C3=O)cc(C)c1Cl [Example 209, (R)-3-(7-Chloro-10-(3-(4-chloro-3,5-dimethylphenoxy)propyl)-4-methyl-1-oxo-6-(1,3,5-trimethyl-1H-pyrazol-4-yl)-3,4-dihydropyrazino[1,2-a]indol-2(1H)-yl)-1-methyl-1H-indole-7-carbonitrile] | 3500 nM | 1.2 nM
Cc1cc(OCCCc2c3n(c4c(-c5c(C)nn(C)c5C)c(Cl)ccc24)[C@H](C)CN(c2cn(C)c4ccc(C(=O)Nc5ccccc5)cc24)C3=O)cc(C)c1Cl [Example 285, 3-[(4R)-7-chloro-10-[3-(4-chloro-3,5-dimethyl-phenoxy)propyl]-4-methyl-1-oxo-6-(1,3,5-trimethylpyrazol-4-yl)-3,4-dihydropyrazino[1,2-a]indol-2-yl]-1-methyl-N-phenyl-indole-5-carboxamide] | 5300 nM | < 1 nM
Cc1cc(OCCCc2c(C(=O)NC3CCC(C(=O)O)CC3)[nH]c3c(-c4c(C)ncnc4C)c(Cl)ccc23)cc(C)c1Cl (single isomer, unassigned) [Example 747, 4-(6-Chloro-3-(3-(4-chloro-3,5-dimethylphenoxy)propyl)-7-(4,6-dimethylpyrimidin-5-yl)-1H-indole-2-carboxamido)cyclohexane-1-carboxylic acid] | – | 16 nM
Cc1cc(OCCCc2c3n(c4c(-c5c(C)nn(C)c5C)c(Cl)ccc24)CCCN(c2cc4c(c(C(=O)O)c2)OCC4)C3=O)cc(C)c1Cl [Example 18, 5-[8-chloro-11-[3-(4-chloro-3,5-dimethyl-phenoxy)propyl]-1-oxo-7-(1,3,5-trimethylpyrazol-4-yl)-4,5-dihydro-3H-[1,4]diazepino[1,2-a]indol-2-yl]-2,3-dihydrobenzofuran-7-carboxylic acid] | – | 5.8 nM
COC(=O)c1cc2c(c(N3CCCn4c(c(CCCOc5cc(C)c(Cl)c(C)c5)c5ccc(Cl)c(-c6c(C)nn(C)c6C)c54)C3=O)c1)OCCO2 [Example 60, Methyl 8-(8-chloro-11-(3-(4-chloro-3,5-dimethylphenoxy)propyl)-1-oxo-7-(1,3,5-trimethyl-1H-pyrazol-4-yl)-4,5-dihydro-1H-[1,4]diazepino[1,2-a]indol-2(3H)-yl)-2,3-dihydrobenzo[b][1,4]dioxine-6-carboxylate] | – | < 1 nM
Cc1cc(OCCCc2c3n(c4c(-c5c(C)nn(C)c5C)c(Cl)ccc24)[C@H](C)CN(c2nc4cc(C(=O)O)ccn4n2)C3=O)cc(C)c1Cl [Example 135, (R)-2-(7-chloro-10-(3-(4-chloro-3,5-dimethylphenoxy)propyl)-4-methyl-1-oxo-6-(1,3,5-trimethyl-1H-pyrazol-4-yl)-3,4-dihydropyrazino[1,2-a]indol-2(1H)-yl)-[1,2,4]triazolo[1,5-a]pyridine-7-carboxylic acid] | – | < 1 nM
Cc1cc(OCCCc2c3n(c4c(-c5c(C)cccc5C)c(Cl)ccc24)CCCN(c2cc(C(=O)O)c4ccn(C)c4c2)C3=O)cc(C)c1Cl [Example 91, 6-[8-Chloro-11-[3-(4-chloro-3,5-dimethyl-phenoxy)propyl]-7-(2,6-dimethylphenyl)-1-oxo-4,5-dihydro-3H-[1,4]diazepino[1,2-a]indol-2-yl]-1-methyl-indole-4-carboxylic acid] | – | 7.3 nM
Cc1cc(OCCCc2c3n(c4c(-c5c(C)nn(C)c5C)c(Cl)ccc24)[C@H](C)CN(c2ccc(F)c4cc[nH]c24)C3=O)cc(C)c1Cl [Example 446, (R)-7-Chloro-10-(3-(4-chloro-3,5-dimethylphenoxy)propyl)-2-(4-fluoro-1H-indol-7-yl)-4-methyl-6-(1,3,5-trimethyl-1H-pyrazol-4-yl)-3,4-dihydropyrazino[1,2-a]indol-1(2H)-one] | – | 8.2 nM
COC(=O)c1cn(C)c2c(N3C[C@@H](C)n4c(c(CCCOc5cc(C)c(Cl)c(C)c5)c5ccc(Cl)c(-c6c(C)nn(C)c6C)c54)C3=O)cccc12 [Example 205, Methyl (R)-7-(7-chloro-10-(3-(4-chloro-3,5-dimethylphenoxy)propyl)-4-methyl-1-oxo-6-(1,3,5-trimethyl-1H-pyrazol-4-yl)-3,4-dihydropyrazino[1,2-a]indol-2(1H)-yl)-1-methyl-1H-indole-3-carboxylate] | – | 2.4 nM
Cc1cc(OCCCc2c3n(c4c(-c5c(C)nn(C)c5C)c(Cl)ccc24)CCCN(c2cc(C(=O)O)c4cn(CCN(C)C)nc4c2)C3=O)cc(C)c1Cl [Example 42, 6-[8-chloro-11-[3-(4-chloro-3,5-dimethyl-phenoxy)propyl]-1-oxo-7-(1,3,5-trimethylpyrazol-4-yl)-4,5-dihydro-3H-[1,4]diazepino[1,2-a]indol-2-yl]-2-[2-(dimethylamino)ethyl]indazole-4-carboxylic acid] | – | 8 nM
Cc1cc(OCCCc2c(C(=O)N(C)c3cccc(C(=O)O)c3)n(CCN3CCOCC3)c3c(-c4c(C)nn(C)c4C)c(Cl)ccc23)cc(C)c1Cl [Example 730, 3-[[6-chloro-3-[3-(4-chloro-3,5-dimethyl-phenoxy)propyl]-1-(2-morpholinoethyl)-7-(1,3,5-trimethylpyrazol-4-yl)indole-2-carbonyl]-methyl-amino]benzoic acid] | – | 20 nM
Cc1cc(OCCCc2c3n(c4c(-c5c(C)nn(C)c5C)c(Cl)ccc24)[C@H](C)CN(c2cccc4c2c(C(=O)O)nn4C)C3=O)cc(C)c1Cl [Example 127, 4-[(4R)-7-chloro-10-[3-(4-chloro-3,5-dimethyl-phenoxy)propyl]-4-methyl-1-oxo-6-(1,3,5-trimethylpyrazol-4-yl)-3,4-dihydropyrazino[1,2-a]indol-2-yl]-1-methyl-indazole-3-carboxylic acid] | – | < 1 nM
Cc1cc(OCCCc2c3n(c4c(-c5c(C)nn(C)c5C)c(Cl)ccc24)CCCN(Cc2cc(C(=O)O)cc(N4CCN(S(=O)(=O)C5CC5)CC4)n2)C3=O)cc(C)c1Cl [Example 47, 2-((8-Chloro-11-(3-(4-chloro-3,5-dimethylphenoxy)propyl)-1-oxo-7-(1,3,5-trimethyl-1H-pyrazol-4-yl)-4,5-dihydro-1H-[1,4]diazepino[1,2-a]indol-2(3H)-yl)methyl)-6-(4-(cyclopropylsulfonyl)piperazin-1-yl)isonicotinic acid] | – | 19 nM
Cc1cc(OCCCc2c3n(c4c(-c5c(C)nn(C)c5C)c(Cl)ccc24)CCCN(Cc2cc(C(=O)O)cc(N4CCN(C(=O)c5ccco5)CC4)n2)C3=O)cc(C)c1Cl [Example 9, 2-((8-Chloro-11-(3-(4-chloro-3,5-dimethylphenoxy)propyl)-1-oxo-7-(1,3,5-trimethyl-1H-pyrazol-4-yl)-4,5-dihydro-1H-[1,4]diazepino[1,2-a]indol-2(3H)-yl)methyl)-6-(4-(furan-2-carbonyl)piperazin-1-yl)isonicotinic acid] | – | 20 nM
Cc1cc(OCCCc2c3n(c4c(-c5c(C)nn(C)c5C)c(Cl)ccc24)CCCN(c2ccc4c(c2)CCCN4CC(=O)O)C3=O)cc(C)c1Cl [Example 46, 2-(6-(8-Chloro-11-(3-(4-chloro-3,5-dimethylphenoxy)propyl)-1-oxo-7-(1,3,5-trimethyl-1H-pyrazol-4-yl)-4,5-dihydro-1H-[1,4]diazepino[1,2-a]indol-2(3H)-yl)-3,4-dihydroquinolin-1(2H)-yl)acetic acid] | – | 26 nM
Cc1cc(OCCCc2c3n(c4c(-c5c(C)nn(C)c5C)c(Cl)ccc24)[C@H](C)CN(c2ccc4nc(C(=O)O)cn4c2)C3=O)cc(C)c1Cl [Example 139, (R)-6-(7-chloro-10-(3-(4-chloro-3,5-dimethylphenoxy)propyl)-4-methyl-1-oxo-6-(1,3,5-trimethyl-1H-pyrazol-4-yl)-3,4-dihydropyrazino[1,2-a]indol-2(1H)-yl)imidazo[1,2-a]pyridine-2-carboxylic acid] | – | 1.1 nM
